Results from patent US6414021B1, “Control of intraocular pressure during surgery” (Sucampo AG, priority 2000, dated 2002).

Assays:
[1] = system: intraocular pressure in monkeys; assay: Intraocular pressure lowering effect by perfusion in the anterior chamber in monkeys (Example 1, 59 ng/mL); format: in vivo, cynomolgus monkeys; details: for IOP decrease as compared with changes in IOP of the control after vehicle perfusion: 59 ng/mL, anterior chamber perfusion 50 μL/min for 1 hour, n=2
Experimental: The intraocular pressure lowering effect of 15-keto acid of latanoprost (13,14-dihydro-15-keto-17-phenyl-18,19,20-trinor-PGF2α) by perfusion in the anterior chamber in monkeys was investigated.
Male cynomolgus monkeys (body weight: 4.5-6.5 kg) were used. These monkeys were housed individually in cages for monkeys in a room which was maintained at room temperature of 24±1° C., relative humidity of 55±10%, ventilation of about 12 times/hour and a 12-hour light-dark cycle (fluorescent lighting: 8:00 a.m. to 8:00 p.m). The animals were given solid food for monkeys (PS, Oriental Yeast Co., Ltd.), vegetables and fruits, and allowed free access to tap water from an automatic dispenser. The healthy animals without abnormalities in the anterior segment of the eye were used in this study.
In the present study the solution containing 59 ng/mL of 15-keto acid of latanoprost was adjusted with commercially available intraocular perfusate (Opeguard-MA, Lot P-464, Senju Pharmaceutical Co., Ltd.). The control solution (vehicle) was the intraocular perfusate.
The animals were anesthetized by the injection intramuscularly with 5.0-7.5 mg/kg of ketamine hydrochloride (Ketalar®50, Sankyo Co., Ltd.), and restrained in a supine position. In operation and perfusion of the dosing solution in the anterior chamber, the anesthesia was maintained by intramuscular injection of 5 mg/kg of ketamine at interval of 30 minutes. […]
After the ocular surface of monkeys was anesthetized by instillation of 0.4% oxybuprocaine hydrochloride (Benoxil® 0.4% solution, Santen Pharmaceutical Co., Ltd.) under i.m. systemic anesthesia with 5 mg/kg of ketamine hydrochloride, IOP was measured with an applanation pneumatonograph (Alcon Japan Ltd.). IOP was measured before perfusion of the test substance and 2 and 4 hours after perfusion (3 and 5 hours, respectively, after the start of the perfusion of the test substance). The mean value of the IOP measured twice at 30-minute interval before perfusion was used as IOP before perfusion of the test substance. […]

[2] = system: intraocular pressure in monkeys; assay: Effects on intraocular pressure by intra-anterior chamber perfusion with a lower dosage in monkeys (Example 2, 2 ng/mL); format: in vivo, cynomologus monkeys; details: for IOP: perfusion 40 μL/min for 1 hour; for IOP / Difference in IOP between both treatments (IOP in 15-keto acid of latanoprost treatment minus IOP in vehicle treatment) / ΔIOP: Changes of IOP from pre-treatment value: mean ± S.E. of 7 animals
Experimental: The effects on intraocular pressure by intra-anterior chamber perfusion with a lower dosage of 13,14-dihydro-15-keto-17-phenyl-18,19,20-trinor-PGF2 α (15-keto acid of latanoprost) were investigated in monkeys. One hour perfusion in the anterior chamber with 15-keto acid of latanoprost at the concentration (2 ng/mL) was carried out.
The solution containing 15-keto acid of latanoprost at 2 ng/mL was prepared with a commercially available intraocular perfusate (Opeguard MA, Senju Pharmaceutical Co. Ltd.) as a vehicle.
Seven male cynomologus monkeys (Body weight: 3.9-6.0 kg) purchased from Kasyo Co., Ltd. were used. These monkeys were housed individually in cages in a room which was maintained at room temperature of 24±1° C., relative humidity of 55±10%, ventilation rate of about 12 times/hour and 12-hour light-dark cycle (fluorescent lighting: 8:00 to 20:00). The animals were given food pellets for monkeys (PS, Oriental Yeast Co., Ltd.), vegetables and fruits once a day, and allowed free access to tap water from an automatic dispenser. The healthy animals without abnormalities in the anterior segment of the eye were used in this study.
The animals were anesthetized by an intramuscular injection of 5.0-7.5 mg/kg of katamine hydrochloride (Ketalar 50, Sankyo Co., Ltd.), and restrained in a supine position. Two 30 G injection needles (one for infusion of the dosing solution and the other for discharge, Becton Dickinson and Co.) connected to polyethylene cannula (PE10, Becton Dickinson and Co.) were inserted into the anterior chamber from the temporal corneal ring of the eye ball. The anterior chamber was perfused with the 15-keto acid of latanoprost solution or the vehicle at a rate of 40 μL/min through the cannula for 1 hour using a syringe pump (Model 100, KD Scientific Inc.). During the perfusion, the anesthesia was maintained by intramuscular injection of 5.0 mg/kg ketamine hydrochloride every 20 minutes.
The animals were systemically anesthetized by an intramuscular injection of 5.0-7.5 mg/kg of ketamine hydrochloride (Ketalar 50, Sankyo Co., Ltd.), and the ocular surface was anesthetized by a instillation of 0.4% oxybuprocaine hydrochloride (Benoxil 0.4% solution, Santen Pharmaceutical Co., Ltd.). The animals were fixed in a supine position, and the intraocular pressure was measured by use of a pneumatonometer (Model 30 Classic, Mentor O & O.) before, and 3 and 5 hours after starting the perfusion (2 and 4 hours after stopping the perfusion, respectively).
The animals were used two times. The same eye of each animal was used for both treatments in a crossover way with a recovery period for at least 12 days.
The data were statistically analyzed with Student's t-test or paired t-test. P values less than 0.05 were considered to be statistically significant.

[3] = 2 ng/mL, 3 hours after starting perfusion
[4] = 2 ng/mL, 5 hours after starting perfusion

With O=C(O)CCC/C=C\C[C@@H]1[C@@H](CCC(=O)CCc2ccccc2)[C@H](O)C[C@@H]1O [15-keto acid of latanoprost, 13,14-dihydro-15-keto-17-phenyl-18,19,20-trinor-PGF2α] the “IOP decrease as compared with changes in IOP of the control after vehicle perfusion” value ([1]; 3 hours after the start of perfusion) was 2.8 mmHg, the “IOP decrease as compared with changes in IOP of the control after vehicle perfusion” value ([1]; 5 hours after the start of perfusion) was 2.3 mmHg and the “effect on intraocular pressure (in words)” value ([1]; perfusion in the anterior chamber, monkeys) was “intraocular pressure was lowered”. For the same compound, the “effect on intraocular pressure (in words)” value ([2]; 2 ng/mL solution, intra-anterior chamber perfusion) was “significant reduction in the intraocular pressure”, the IOP [2, 3] was 23.1 ± 1.3 mmHg and the IOP [2, 4] was 24.4 ± 0.7 mmHg. For the same compound, the IOP ([2]; 2 ng/mL, before perfusion) was 24.1 ± 0.8 mmHg, the “Difference in IOP between both treatments (IOP in 15-keto acid of latanoprost treatment minus IOP in vehicle treatment)” value [2, 3] was −2.9 ± 1.1 mmHg and the “ΔIOP: Changes of IOP from pre-treatment value” [2, 3] was −1.0 ± 0.7 mmHg. The “lowering of intraocular pressure as compared with the pre-treatment value” ([2]; 2 ng/mL, 3 hours after starting the perfusion) was 1.0 mmHg, the “Difference in IOP between both treatments (IOP in 15-keto acid of latanoprost treatment minus IOP in vehicle treatment)” value [2, 4] was 0.0 ± 1.0 mmHg and the “ΔIOP: Changes of IOP from pre-treatment value” [2, 4] was 0.3 ± 0.7 mmHg. For the same compound, the “Difference in IOP between both treatments (IOP in 15-keto acid of latanoprost treatment minus IOP in vehicle treatment)” value ([2]; 2 ng/mL, before perfusion) was 0.7 ± 1.1 mmHg.
